In data set [1] the test system is MH3924A Morris hepatoma cells. The experiment in a line: Intracellular uptake of gadolinium complexes (ICP-MS). Type of data set: cell-based, rat. Here is the method: (§1) Cell culture. B16 melanoma cells (mouse) and MH3924A Morris hepatoma cells (rat) were obtained from the German Cancer Research Center (DKFZ) tumor bank and grown at 37° C. as stock cultures in RPMI 1640 supplemented with 10% fetal calf serum and 1% glutamine as standard medium under a 5% CO2 atmosphere (all components: Pan Biotech GmbH, Aidenbach, Germany). For contrast agent uptake studies 10^6 cells were inoculated into 25 cm^2 culture flasks (BD Biosciences, Bedford, USA) and grown for 24 h in 10 mL of the standard culture medium. Cells were then incubated for an additional 24 h (1 h for temperature dependence studies) with fresh medium containing 0, 1, 2.5, 5 or 10 μM of the selected gadolinium complex (three replicate flasks for each incubation). Afterwards the medium was removed, cells were trypsinated, washed twice, resuspended in culture medium and counted (typical yields: 3.5-6 million cells). For comparison 2.5×10^5 human melanocytes (Promo Cell, Heidelberg, Germany) were incubated for 24 h with melanocyte growth medium (Promo Cell, Heidelberg, Germany) containing 0, 1, 2.5, 5 or 10 μM of the selected gadolinium complex (two replicate flasks for each incubation). The work up procedure was as described above typically yielding 2.5×10^5 cells. Cultured human hepatocytes (Cytonet GmbH, Weinheim, Germany) embedded in a collagen matrix in a 12 well microtiter plate, with 6×10^5 viable cells per well were incubated for 24 h in hepatocyte growth medium (Cytonet GmbH, Weinheim, Germany) containing the same concentration series of selected gadolinium complexes. Afterwards the medium was removed, cells were separated using collagenase (Roche Diagnostics, Mannheim, Germany). After digestion the cells were washed twice with PBS, resuspended in culture medium and counted (typical yields: 6×10^5 cells per tube). The intracellular gadolinium content was determined by ICP-MS as described below.
(§2) ICP-MS. Samples containing the above mentioned number of harvested cells were digested with 50% concentrated HNO3 (Superselect; Merck, Darmstadt, Germany) under microwave heating with a Mars 5 apparatus (CEM GmbH, Kamp-Lintfort, Germany). To each sample 100 μL of an aqueous solution of rhodium chloride (1 μg/mL) were added so that Rh-103 could be used as an internal quantification standard. Gd-160 measurements were performed with the ICP-MS instrument mentioned above. The gadolinium concentrations were determined using standard curves created prior to cell analyses. For each uptake incubation condition triplicate cell samples were analyzed, and Gd content for each sample was recorded as the mean of two MS determinations.
(§3) Intracellular Uptake of Gadolinium Complexes. B16 melanoma and MH3924A hepatoma cells as well as human melanocytes and hepatocytes were incubated for 24 h in the presence of the gadolinium complexes shown in FIG. 1, using concentrations in the range of 1-10 μM. Incubations with the unsubstituted [Gd(DTPA)(H2O)]^2−complex (Magnevist®) served as controls. Following cell harvest and hydrolysis, inductively coupled plasma mass spectrometry (ICP-MS) with direct detection of gadolinium was used to quantitate complex uptake (triplicate cultures for each incubation).
(§4) Cell Uptake Studies. A493 (human kidney), B16 melanoma cells (mouse), HeLa (human cervix), MCF-7 (human breats), MH3924A (Morris hepatoma) cells (rat) and 3T3 NIH (mouse fibroblasts) were obtained from the DKFZ tumor cell collection. 3×10^6 cells of each cell type were grown for 24 hours in culture flasks. Afterwards they were incubated for 1 hour in 10 mL culture media containing 0, 10, 50 and 100 μM of Gd-2.2. Gd-3.2 or Gd-4.2. Afterwards the medium was removed, the cells were trypsinated, washed twice, resuspended in culture medium and counted. The gadolinium uptake was determined in triplicate. […] cells were incubated with 0, 1, 2.5, 5 and 10 μM of the Gd-1.2. and Gd-5.2. for 24 h. […]

For a further data set, the system named is B16 melanoma cells. The data set is described as above. Type of data set: cell-based, mouse. The conditions noted are these: for factor of higher cellular uptake in B16 melanoma vs. the hepatoma cells: 24-h incubation (FIG. 2A). Here is the method:
as §1, §2, §3, §4

The nature of another data set: Complex stability. Type of data set: physicochemical. The conditions noted are these: method of Sherry et al. As for the experimental part: Complex stability. The stability constants were determined using a method of Sherry et al. (39).
Data set [2] has as its system subcutaneous MH3924A tumor. As to the kind of experiment: MRI of ACI rats bearing a subcutaneous MH3924A tumor. Type of data set: in vivo, rat. The conditions noted are these: 24 h post Gd, 0.1 mmol/kg i.v., 2.35 T. Here is the method:
(§5) Animal models. For in vivo tumor studies 2×10^6 MH3924A tumor cells were injected subcutaneously into the right thigh of male ACI rats (Charles River, Sulzfeld, Germany) weighing 220 to 260 g. All animal experiments were performed in compliance with the German Animal Protection Laws (Permission 35-9185.81/G-7-03, Reg.-Praesidium, Karlsruhe, Germany).
MRI. At 25 days after inoculation, when tumors had reached a diameter of ca. 10-15 mm, the MR imaging experiments were initiated. ACI rats were anesthetized by intravenous injection of ketamin (Ketanest®, 0.1 mg/g body wt.; Parke-Davis, Berlin, Germany). Then a dose of 0.1 mmol/kg Magnevist® or Gadovist® (Schering, Berlin, Germany) or one of the synthesized agents Gd-3.1., Gd-5.1. or Gd-6.1. was injected intravenously into a lateral tail vein. For one experiment a higher dose (0.36 mmol/kg) of Magnevist® was used. Individual rats were examined by MRI at 1 h and 24 h post Gd, in the case of Magnevist® also at ca. 15 min post Gd. Proton imaging studies were performed at 2.35 T (100.3 MHz) with a Biospec 24/40 instrument (Bruker BioSpin MRI, Ettlingen, Germany). […] Two transaxial multislice imaging protocols were applied with a field of view of 70×70 mm, 128 time-domain data points, 96 phase-encoding steps, and 16 slices of 2 mm thickness. A multi-spin-echo sequence was used for proton-density and T2-weighted images (repetition time TR=2 s, 12 echoes with echo times TE of 8, 16, 24, . . . 96 ms, number of averages=1), and a spoiled gradient-echo sequence was used for T1-weighted imaging (TR=212 ms, TE=5 ms, flip angle=60°, number of averages=3). The data were Fourier transformed to give a 128×128 image matrix with 0.55 mm pixel resolution. Analogous T1-weighted images with coronal slices were acquired with a field of view of 80×80 mm and 3-mm slice thickness.
Imaging viewing, ROI analysis and export of TIFF files was performed with the freeware MRIcro from Chris Rorden (http://people.cas.sc.edu/rorden/mricro.html).

Data set [3] is described as follows: Biodistribution and excretion in tumor-bearing ACI rats. In kind it is in vivo, rat. Here is the method:
as §5
Biodistribution and excretion data. At 14 days after tumor inoculation, when tumors had reached a diameter of ca. 5-6 mm, the biodistribution experiments were initiated. Each animal (210-250 g) was given an intravenous tail-vein injection of […] Magnevist® (Schering, Berlin, Germany) or […] of Gd-5.1. or Gd-6.1. 1 h and 24 hs post-injection (p.i.), the animals were weighed, sacrificed by cervical dislocation and dissected. Organs or tissues were blotted dry and weighed. Samples containing 100-500 mg of the tumor or organs were digested with concentrated HNO3 (Superselect; Merck, Darmstadt, Germany) and H2O2 under microwave heating with a Mars 5 apparatus (CEM GmbH, Kamp-Lintfort, Germany). To each sample 100 μL of an aqueous solution of rhodium chloride (1 μg/mL) were added so that Rh-103 could be used as an internal quantification standard. Gd-160 measurements were performed with the ICP-MS instrument mentioned above. The gadolinium concentrations were determined using standard curves created prior to tissue analyses. The results were expressed as % ID/g tissue. Urine and faeces were gathered in order to measure the excreted amount of Gd(III).

The test system of another data set is MH3924A cells. As to the kind of experiment: Polyamine transport inhibition (binding inhibition assay with benzyl viologen). Particulars: 25 fold molar excess of benzyl viologen over 1 μM Gd-5.1 or Gd-6.1, MH3924A. Type of data set: cell-based, rat. As for the experimental part:
Polyamine transport inhibition. 10^6 MH3924A cells were inoculated into 25 cm^2 culture flasks (BD Biosciences, Bedford, USA) and grown for 24 h in 10 mL of the standard culture medium. Cells were then incubated for an additional 24 h with fresh medium containing 1 μM of Gd-5.1. or Gd-6.1. and 0, 1, 10, 25, 50 or 100 μM of the polyamine uptake inhibitor benzyl viologen (34, 35). Afterwards the medium was removed, cells were trypsinated, washed twice, resuspended in culture medium and counted (typical yields: 3.5-6 million cells). The gadolinium content of the cells was determined by ICP-MS as described below.
as §2

Setting [4] is: 1 h post i.v. injection, one ACI rat, scaled to Gd dose of 100 μmol/kg.

This note sets out measurements from patent US20070202047A1, “Polyamine-substituted ligands for use as contrast agents” (priority 2006, published 2007).

Entries after “also recorded” stand apart in the source; their conditions may differ.

`CCN(CC)CCNC(=O)c1ccc(NC(=O)CN(CCN(CCN(CC(=O)[O-])CC(=O)Nc2ccc(C(=O)NCCN(CC)CC)cc2)CC(=O)[O-])CC(=O)[O-])cc1.[Gd+3]` [Gd-1.1]: in data set [1] (MH3924A cells, 24-h incubation, 10 μM), the “intracellular uptake of gadolinium complex” value is listed as “ca. 0.062 fmol/cell”. For the same compound, the “factor of higher cellular uptake in B16 melanoma vs. the hepatoma cells” value in the data set with B16 melanoma cells was about 2.2.

Regarding `CCN(CC)CCNC(=O)c1ccc(NC(=O)CN2CCN(CC(=O)[O-])CCN(CC(=O)[O-])CCN(CC(=O)[O-])CC2)cc1.[Gd+3]` [Gd-1.2], in data set [1] (B16 and MH3924A, 24 h incubation, 1-10 μM), the “relative uptake (in words)” value was “sufficient for MRI imaging purposes but was the lowest of all tested complexes”.

On to `CCN(CC)CCNC(=O)CN(CCN(CCN(CC(=O)[O-])CC(=O)NCCN(CC)CC)CC(=O)[O-])CC(=O)[O-].[Gd+3]` [Gd-2.1], for which the “factor of higher cellular uptake in B16 melanoma vs. the hepatoma cells” value in the data set on B16 melanoma cells is recorded as about 1.72.

Regarding `CCCCCCCCCNC(=O)CN(CCN(CCN(CC(=O)[O-])CC(=O)NCCN(CC)CC)CC(=O)[O-])CC(=O)[O-].[Gd+3]` [Gd-4.1], the “intracellular uptake (neglectable, near the detection limit)” value in the data set on B16 melanoma cells (24-h incubation, cell line and concentration not stated) turned out to be 0.0036 fmol/cell.

With `NCCCNCCCCN(CCCN)C(=O)CN1CCN(CC(=O)[O-])CCN(CC(=O)[O-])CCN(CC(=O)[O-])CC1.[Gd+3]` [Gd-4.2], the “relative uptake (in words)” value in data set [1] (MH3924A and B16 melanoma cells, 1 h incubation, 100 μM) was “comparable with the uptake of Gd-2.2., but somewhat lower; also recorded: lower than uptake of Gd-3.2. and Gd-2.2., but still sufficient for MRI imaging”.

Turning to `NCCCCN(CCCNCCCN)C(=O)CN(CCN(CCN(CC(=O)[O-])CC(=O)N(CCCCN)CCCNCCCN)CC(=O)[O-])CC(=O)[O-].[Gd+3]` [Gd-5.2], in the data set “Complex stability”, the complex stability constant is reported as 4.22×10^15. Further, the “intracellular uptake of gadolinium complex” value in data set [1] (MH3924A, 24 h incubation, 1-10 μM (concentration not given)) is listed as 0.3 fmol/cell; in the data set with B16 melanoma cells (B16 melanoma cells, 24 h incubation, 1-10 μM (concentration not given)), 0.03 fmol/cell.

Take `CNC[C@H](O)[C@@H](O)[C@H](O)[C@H](O)CO.CNC[C@H](O)[C@@H](O)[C@H](O)[C@H](O)CO.O=C([O-])CN(CCN(CC(=O)[O-])CC(=O)O)CCN(CC(=O)[O-])CC(=O)O.[Gd+3]` [Magnevist, gadopentetate dimeglumine, reference compound]: in data set [2], the “contrast ratio tumor vs. muscle tissue, T1 weighting” value is reported as “no contrast with T1 weighting was achieved”. Moreover, in data set [1] (MH3924A cells, 24-h incubation, 1-10 μM, listed as [Gd(DTPA)(H2O)]^2−), the “intracellular uptake (below ICP-MS detection limit)” value is given as under 0.0002 fmol/cell. Also, in data set [3] (setting [4]), the “Gd concentration, Blood” value stood at 4.8 nmol/g; the “Gd concentration, Bone (femur)” value turned out to be 0.8 nmol/g; the “Gd concentration, Bone Marrow (femur)” value is on record as 1.5 nmol/g; the “Gd concentration, Brain” value was found to be 0.4 nmol/g. In data set [3] (setting [4]), the “Gd concentration, Kidney (+urine)” value was found to be 40.7 nmol/g; the “Gd concentration, Liver” value is recorded as 3.0 nmol/g; the “Gd concentration, Lung” value came to 4.1 nmol/g; the “Gd concentration, Muscle (femur)” value was 1.3 nmol/g. In addition, in data set [3] (setting [4]), the “Gd concentration, Small Intestine” value stood at 1.8 nmol/g; the “Gd concentration, Spleen” value amounted to 1.5 nmol/g; the “Gd concentration, Tumor (MH3924A)” value turned out to be 3.1 nmol/g; the “Gd concentration, Urine (cumulative)” value is 25805.3 nmol/g. For the same compound, the “gadolinium found in the urine” value in data set [3] (one hour post injection, ACI rat) amounted to 88%. Besides, in the data set with B16 melanoma cells (B16 melanoma cells, 24-h incubation, 1-10 μM), the “intracellular uptake (below ICP-MS detection limit)” value is recorded as under 0.00002 fmol/cell. Further, the “intracellular uptake (below ICP-MS detection limit)” value with B16 melanoma cells (B16 melanoma cells, 24-h incubation, 1-10 μM, listed as [Gd(DTPA)(H2O)]^2−) is on record as under 0.0002 fmol/cell.

As for `O.O=C([O-])CN1CCN(CC(=O)[O-])CCN(CC(=O)[O-])CCN(CC(=O)[O-])CC1.[Gd+3]` [[Gd(DOTA)(H2O)]^−, reference compound], the “intracellular uptake (below ICP-MS detection limit)” value was under 0.0002 fmol/cell in data set [1] (MH3924A cells, control incubation of Example 2) and under 0.0002 fmol/cell with B16 melanoma cells (B16 melanoma cells, control incubation of Example 2).

On to `c1ccc(C[n+]2ccc(-c3cc[n+](Cc4ccccc4)cc3)cc2)cc1` [benzyl viologen], for which, in the data set with MH3924A cells, the “inhibition of Gd complex uptake” value is “up to 90%”.
